Drawing on US7553832B2, “Methods and compositions for specific inhibition of protein splicing by small molecules” (Boston Biomedical Research Institute, priority 2005, dated 2009), this text covers IC50 for 37 molecules.

Structures are written as SMILES.

The target of the assay is T1, M. tuberculosis DnaB intein (Mycobacterium tuberculosis, UniProt P9WMR3).
T1 sequence (P9WMR3 400-815 limits assumed): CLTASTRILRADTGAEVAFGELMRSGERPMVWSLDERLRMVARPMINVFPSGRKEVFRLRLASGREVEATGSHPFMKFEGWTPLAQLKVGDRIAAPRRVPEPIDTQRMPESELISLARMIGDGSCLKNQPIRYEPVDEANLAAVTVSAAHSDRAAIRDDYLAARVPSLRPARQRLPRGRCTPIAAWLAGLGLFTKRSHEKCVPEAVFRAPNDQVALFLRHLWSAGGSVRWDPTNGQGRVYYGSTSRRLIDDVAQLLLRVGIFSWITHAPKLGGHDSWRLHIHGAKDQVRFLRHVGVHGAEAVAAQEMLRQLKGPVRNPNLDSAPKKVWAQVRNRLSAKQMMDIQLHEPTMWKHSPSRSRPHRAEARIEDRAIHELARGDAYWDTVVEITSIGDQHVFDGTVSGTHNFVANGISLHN
The assay is described as follows: biochemical. Format: biochemical.
Usually IC50 stands for the concentration that inhibits the measured activity by half. A low value points to inhibition by little substance. The molecule `Oc1cc2c(cc1C(c1ccc(Cl)c(Cl)c1)N1CCCC1)OCO2` (stereo not shown) [Compound 1] registered an IC50 of 30 µM.
On to `CCCN(CCC)S(=O)(=O)c1ccc(C(=O)SCC(=O)OCC)cc1` [Compound 2], for which the 50% inhibitory concentration (IC50) stood at 13 µM.
As for `CS(=O)(=O)c1cc(C(F)(F)F)cc(S(C)(=O)=O)c1S(C)(=O)=O` [Compound 3], the figure is 17 µM; as for `O=S(=O)(c1ccc(Br)cc1)c1snnc1-c1ccccc1` [Compound 6], 13 µM; as for `O=S(=O)(c1ccc(Cl)c(Cl)c1)c1snnc1-c1ccccc1` [Compound 7], 6 µM.
Regarding `COc1ccc(NC(=O)C(Cl)=C(Cl)[S+]([O-])Cc2ccccc2)cn1` (stereo not shown) [Compound 9], the half-inhibitory concentration (IC50) is 7 µM.
As for `O=C(Nc1ccccc1)c1nnsc1S(=O)(=O)c1ccc(Cl)cc1` [Compound 10], the figure is 7 µM.
Next, `O=C(c1nnsc1[S+]([O-])c1ccc(Cl)cc1)N1CCCCC1` (stereo not shown) [Compound 11]: 8 µM.
Consider `O=C(CCl)N1CCN2C(=O)c3ccccc3C12c1ccc(Cl)cc1` (stereo not shown) [Compound 13], for which the IC50 stood at 8 µM.
Next, `N#CC1(C#N)C(c2cccc(I)c2)C(C(N)=O)N2C=Cc3ccccc3C21` (stereo not shown) [Compound 17]: 15 µM; `N#CC1(C#N)C(c2ccccc2Cl)C1(C#N)C#N` [Compound 21]: 15 µM.
Turning to `O=C(Oc1ccc(Cl)cc1)c1snnc1-c1ccccc1` [Compound 23], the IC50 is under 5 µM.
As for `N#CCSc1ccc(C#N)cc1` [Compound 24], the figure is 12 µM; as for `C=CCn1c(Sc2ncnc3c2sc(=S)n3CC=C)nnc1-c1ccccc1` [Compound 27], under 5 µM; as for `N#CC(N)=C(C#N)NCc1ccccc1Sc1ccc(Cl)cc1` [Compound 29], under 5 µM.
For `CC1(C)CC(=O)c2c(S(C)(=O)=O)sc(C(=O)OCc3ccccc3)c2C1` [Compound 30], the 50% inhibitory concentration (IC50) is under 5 µM.
As for `COC(=O)c1sc(S(C)(=O)=O)c(C#N)c1-c1cc(C(C)(C)C)oc1C` [Compound 33], the figure is under 5 µM; as for `O=S(=O)(c1cccc(C(F)(F)F)c1)c1snnc1-c1ccccc1` [Compound 35], under 5 µM.
As to `CC1(C)CC(=O)C2(C(=O)C1)C(c1ccc(Cl)cc1Cl)C2(C#N)C#N` (stereo not shown) [Compound 37], the IC50 was under 5 µM.
As for `O=C(OCn1ncc(Cl)c(Cl)c1=O)c1cccc(C(F)(F)F)c1` [Compound 38], the figure is under 5 µM.
`Cn1cc(C(=O)c2cccc(Cl)c2Cl)cc1C(=O)C(Cl)(Cl)Cl` [Compound 40] showed an IC50 of under 5 µM.
As for `CCOC(=O)c1nnc(-c2ccccc2)nc1Sc1ccccc1C(=O)OC` [Compound 41], the figure is under 5 µM.
`COc1ccc(NC(=O)C(Cl)=C(Cl)[S+]([O-])Cc2ccc(C)cc2)cn1` (stereo not shown) [Compound 43]: the IC50 was under 5 µM.
`Oc1cc(OCc2ccc(C(F)(F)F)cc2)ccc1-c1cc[nH]n1` [Compound 44] came in with a half-inhibitory concentration (IC50) of under 5 µM.
As for `[O-][S+](c1ccc(C(F)(F)F)cc1)c1cnn2c(Cl)nnc2c1` (stereo not shown) [Compound 45], the figure is under 5 µM.
Next, `COc1cccc(N(NC(=O)C(O)(c2cccc(C(F)(F)F)c2)c2cccc(C(F)(F)F)c2)C(=O)CCl)c1` [Compound 51]: under 5 µM.
The molecule `O=C(Nn1c(C2CCCCC2)nc2ccccc2c1=O)c1cc([N+](=O)[O-])cc([N+](=O)[O-])c1Cl` [Compound 53] yielded a 50% inhibitory concentration (IC50) of under 5 µM.
As for `O=[N+]([O-])c1cc(C(F)(F)F)cc([N+](=O)[O-])c1Sc1nc2ccccc2[nH]1` [Compound 55], the figure is 7 µM.
Regarding `CCOC(=O)CSc1nc2c(c(-c3cccs3)c1C#N)CN(C)CC2` [Compound 56], inhibition was half-maximal at 10 µM (IC50).
Next, `O=C(c1c[nH]c(C(=O)C(Cl)(Cl)Cl)c1)c1cccc(Cl)c1Cl` [Compound 59]: under 5 µM.
In the case of `Cc1cc(Oc2c([N+](=O)[O-])cc(C(F)(F)F)cc2[N+](=O)[O-])ccc1Cl` [Compound 64], the concentration for half-maximal inhibition (IC50) was under 5 µM.
Next, `Cc1cc(S(=O)(=O)c2ccc(C(F)(F)F)cc2[N+](=O)[O-])c(Cl)cc1Cl` [Compound 66]: under 5 µM.
Consider `O=C(Sc1ccccc1)c1ccc2ncsc2c1` [Compound 68], for which half-maximal inhibition (IC50) was put at 9 µM.
Molecule `Oc1cc2c(cc1C(c1ccc(C(F)(F)F)cc1)N1CCOCC1)OCO2` (stereo not shown) [Compound 69] returned an IC50 of 37 µM.
Consider `Oc1ccc(Br)cc1CNc1cccc(C(F)(F)F)c1` [Compound 70], for which the IC50 is 5 µM.
Next, `CCOC(=O)c1cc(C#N)c(Sc2nnc(SCC3CC3)s2)nc1C(F)(F)F` [Compound 71]: under 5 µM; `CCOC(=O)c1cc(C#N)c(Sc2nnc(SC)s2)nc1C(F)(F)F` [Compound 72]: under 5 µM.
